This is an account of results in patent US5821258A, “Phenylbenzimidazole derivatives” (priority 1994, dated 1998).

For orientation: T/C means the result in the treated group divided by that in the control group, in per cent. As usually defined, the ΔTm is the shift of the melting midpoint relative to a reference. A word on the IC50: it is the concentration that inhibits the measured activity by half.

The subject of assay [1] is mouse colon cancer cells of Colon 26. The experiment in a line: Anti-tumor test in mice implanted with Colon 26 cells, tumor weight on 15th day (Test Example 3). The following applies: tail vein on 1st day, Colon 26 s.c. in female CDF1 mouse, tumor weight on 15th day vs control 100%. It counts as in vivo. On the procedure:
A cell floating solution having 1×10^7 mouse colon cancer cells of Colon 26 per ml of HBSS (Hanks' Balanced Salt Solution) was prepared. Next, 0.1 ml of this cell floating solution was implanted in the side abdomen hypodermis of a female CDFl mouse (0 day). On the day after the tumor implantation (1st day), the weight of the mouse was measured, and a solution of a compound (a 5% glucose solution containing 5% Tween 80) was administered into the tail vein of the mouse. On the 15th day, the tumor was extracted, and its weight was then measured.
An average tumor weight ratio of each experimental sample was calculated as a T/C value on the assumption that the average tumor weight ratio of a control to which any compound was not administered was 100%.
The T/C values correspond to compound numbers, respectively, and each value in the parentheses represents the concentration of the drug at the time when its T/C value was obtained.

Another assay concerns B16 melanoma cells. As to the kind of experiment: in vitro inhibitory activity on tumor cell growth, B16 melanoma cells (Test Example 2). It counts as cell-based. As to conditions: B16 mouse melanoma cells, 37° C., 3 days, 5% CO2, concentration for 50% growth inhibitory effect. As to the method:
The anticancer activity of each compound will be described. […] This test was carried out by measuring an in vitro inhibitory activity on tumor cell growth. That is to say, the B16 melanoma cells of a mouse were planted on a culture plate having 96 cells, and a compound was then added after one day and the cells were cultured at 37° C. for 3 days in 5% CO2. Next, a compound concentration (IC50) necessary to accomplish a 50% growth inhibitory effect was determined in accordance with a procedure described in Cancer. Res., Vol. 48, p. 589-601 (1988). The unit of the drug concentration was μg/ml. The result of distamycin is also simultaneously shown as a comparative example.

Another assay deals with poly d(A-T)-d(A-T). As to the kind of experiment: Linkage to DNA, Tm value comparison with and without compound (Test Example 1). As to conditions: poly d(A-T)-d(A-T) in buffer; difference from Tm of the DNA alone. The format is binding. As to the method:
Investigation was made on the linkage of each compound to DNA. The test was carried out by comparing a Tm value in the case that the compound was added to the DNA solution with a Tm value in the case that no compound was added thereto.
That is to say, poly d(A-T)-d(A-T) was used as the DNA. This DNA was dissolved in a buffer solution and the compound was further added thereto, and the Tm value was then measured. On the other hand, the Tm of the DNA alone was measured, and a difference (ΔTm) was then calculated. For the measurement, a U-3200 model spectrophotometer made by Hitachi, Ltd. was used, and for the control of temperature, SPR-10 model made by Hitachi, Ltd. was used.

In brackets after ≈: the same amount, converted by molar mass. Counter-ions that a name gives are not always drawn.

Molecule `COc1cccc2c1C(=O)c1c(O)c3c(c(O)c1C2=O)C[C@@](O)(C(=O)CO)C[C@@H]3O[C@H]1C[C@H](N)[C@H](O)[C@H](C)O1` [Adriamycin, adriamycin, reference compound] gave a T/C in assay [1] (20 mg/kg) of 29%.
Take `N=C(N)CCNC(=O)c1ccc2[nH]c(-c3ccc(NC(=O)CCCc4ccc(N(CCCl)CCCl)cc4)cc3)nc2c1` [Compound 2, 1H-2-[4-[[4-[4-[N,N-bis(2-chloroethyl)amino]phenyl]butyryl]amino]phenyl]benzimidazole-5-[N-(2-amidinoethyl]carboxyamide hydrochloride]: the “IC50 (anti-tumor activity)” value with B16 melanoma cells came to 0.58 µg/mL.
Turning to `CN(C)CCCNC(=O)c1ccc2[nH]c(-c3ccc(NC(=O)CCCc4ccc(N(CCCl)CCCl)cc4)cc3)nc2c1` [Compound 29, 1H-2-[4-[[4-[4-[N,N-bis(2-chloroethyl)amino]phenyl]butyryl]amino]phenyl]benzimidazole-5-[N-[3-(dimethylamino)propyl]]carboxyamide], in the assay on B16 melanoma cells, the “IC50 (anti-tumor activity)” value was found to be 3.05 µg/mL (≈ 4.89 µM).
With `N=C(N)CCNC(=O)c1ccc2[nH]c(-c3cccc(NC(=O)CCCc4ccc(N(CCCl)CCCl)cc4)c3)nc2c1` [Compound 47, 1H-2-[3-[[4-[4-[N,N-bis(2-chloroethyl)amino]phenyl]butyryl]amino]phenyl]benzimidazole-5-[N-(2-amidinoethyl]carboxyamide hydrochloride], in the assay with B16 melanoma cells, the “IC50 (anti-tumor activity)” value was 0.38 µg/mL.
On the same count and under the same terms, for `N=C(N)NCC(=O)Nc1ccc(-c2nc3cc(C(=O)Nc4ccc(N(CCCl)CCCl)cc4)ccc3[nH]2)cc1` [Compound 1001, 1H-2-[4-(guanidinoacetylamino)phenyl]benzimidazole-5-[N-[4-[N,N-bis(2-chloroethyl)amino)phenyl]]carboxyamide dihydrochloride] the value was 0.36 µg/mL.
On the same count and under the same terms, for `N=C(N)NCC(=O)Nc1ccc(-c2nc3cc(C(=O)Nc4cccc(N(CCCl)CCCl)c4)ccc3[nH]2)cc1` [Compound 1010, 1H-2-[4-(guanidinoacetylamino)phenyl]benzimidazole-5-[N-[3-[N,N-bis(2-chloroethyl)amino]phenyl]]carboxyamide] the value was 3.19 µg/mL (≈ 5.62 µM).
`N=C(N)NCC(=O)Nc1cccc(-c2nc3cc(C(=O)Nc4ccc(N(CCCl)CCCl)cc4)ccc3[nH]2)c1` [Compound 2001, 1H-2-[3-(guanidinoacetylamino)phenyl]benzimidazole-5-[N-[4-[N,N-bis(2-chloroethyl)amino)phenyl]]carboxyamide dihydrochloride] came in with a T/C in assay [1] (30 mg/kg) of 13%. Also, the “IC50 (anti-tumor activity)” value with B16 melanoma cells was 0.82 µg/mL. The ΔTm in the assay with poly d(A-T)-d(A-T) came to 14 °C.
`Cc1cc(NC(=O)c2ccc3[nH]c(-c4cccc(NC(=O)CNC(=N)N)c4)nc3c2)ccc1N(CCCl)CCCl` [Compound 2004, 1H-2-[3-(guanidinoacetylamino)phenyl]benzimidazole-5-[N-[3-methyl-4-[N,N-bis(2-chloroethyl)amino]phenyl]]carboxyamide dihydrochloride]: in the assay on B16 melanoma cells, the “IC50 (anti-tumor activity)” value was found to be 0.53 µg/mL.
`N=C(N)NCC(=O)Nc1cccc(-c2nc3cc(C(=O)Nc4ccc(N(CCCl)CCCl)c(Cl)c4)ccc3[nH]2)c1` [Compound 2006, 1H-2-[3-(guanidinoacetylamino)phenyl]benzimidazole-5-[N-[3-chloro-4-[N,N-bis(2-chloroethyl)amino]phenyl]]carboxyamide dihydrochloride] had a T/C in assay [1] (10 mg/kg) of 21%. Moreover, the “IC50 (anti-tumor activity)” value in the assay with B16 melanoma cells amounted to 0.65 µg/mL.
As to `N=C(N)NCCCC(=O)Nc1cccc(-c2nc3cc(C(=O)Nc4ccc(N(CCCl)CCCl)cc4)ccc3[nH]2)c1` [Compound 2011, 1H-2-[3-[4-(guanidino)butyryl]amino]phenyl]benzimidazole-5-[N-[4-[N,N-bis(2-chloroethyl)amino)phenyl]]carboxyamide dihydrochloride], the “IC50 (anti-tumor activity)” value with B16 melanoma cells is 0.97 µg/mL.
Same read-out and setting: for `Cc1cc(NC(=O)c2ccc3[nH]c(-c4cccc(NC(=O)CCCNC(=N)N)c4)nc3c2)ccc1N(CCCl)CCCl` [Compound 2014, 1H-2-[3-[[4-(guanidino)butyryl]amino]phenyl]benzimidazole-5-[N-[3-methyl-4-[N,N-bis(2-chloroethyl)amino]phenyl]]carboxyamide dihydrochloride] the value was 1.18 µg/mL; for `N=C(N)NCCCC(=O)Nc1cccc(-c2nc3cc(C(=O)Nc4ccc(N(CCCl)CCCl)c(Cl)c4)ccc3[nH]2)c1` [Compound 2016, 1H-2-[3-[[4-(guanidino)butyryl]amino]phenyl]benzimidazole-5-[N-[3-chloro-4-[N,N-bis(2-chloroethyl)amino]phenyl]]carboxyamide dihydrochloride], 2.08 µg/mL; for `CN(C)CCCC(=O)Nc1cccc(-c2nc3cc(C(=O)Nc4ccc(N(CCCl)CCCl)cc4)ccc3[nH]2)c1` [Compound 2031, 1H-2-[3-[[4-(dimethylamino)butyryl]amino]phenyl]benzimidazole-5-[N-[4-[N,N-bis(2-chloroethyl)amino)phenyl]]carboxyamide dihydrochloride], 1.56 µg/mL.
Same read-out and setting: as for `C[S+](C)CCC(=O)Nc1cccc(-c2nc3cc(C(=O)Nc4ccc(N(CCCl)CCCl)cc4)ccc3[nH]2)c1` [Compound 2041, 2-[N-[3-[5-[N-[4-[N,N-bis(2-chloroethyl)amino]phenylnyl]carbamoyl]-1H-benzimidazole-2-yl]phenyl]]carbamoylethyl-dimethylsulfonium iodide], the figure is 0.37 µg/mL; as for `Cc1cc(NC(=O)c2ccc3[nH]c(-c4cccc(NC(=O)CC[S+](C)C)c4)nc3c2)ccc1N(CCCl)CCCl.[I-]` [Compound 2044, 2-[N-[3-[5-[N-[3-methyl-4-[N,N-bis(2-chloroethyl)amino]phenyl]carbamoyl]-1Hbenzimidazole-2-yl]phenyl]]carbamoylethyl-dimethylsulfonium iodide], 0.72 µg/mL.
For `C[S+](C)CCC(=O)Nc1cccc(-c2nc3cc(C(=O)Nc4ccc(N(CCCl)CCCl)c(Cl)c4)ccc3[nH]2)c1` [Compound 2046, 2-[N-[3-[5-[N-[3-chloro-4-[N,N-bis(2-chloroethyl)amino]phenyl]carbamoyl]-1H-benzimidazole-2-yl]phenyl]carbamoylethyl]dimethylsulfonium iodide], the “IC50 (anti-tumor activity)” value in the assay on B16 melanoma cells came out at 0.39 µg/mL.
On to `O=C(CCN1CCOCC1)Nc1cccc(-c2nc3cc(C(=O)Nc4ccc(N(CCCl)CCCl)cc4)ccc3[nH]2)c1` [Compound 2051, 1H-2-[3-[(3-morpholinopropionyl)amino]phenyl]benzimidazole-5-[N-[4-[N,N-bis(2-chloroethyl)amino]phenyl]]carboxyamide hydrochloride], for which the “IC50 (anti-tumor activity)” value in the assay with B16 melanoma cells stood at 0.49 µg/mL.
Still for that read-out and setting: as for `Cc1cc(NC(=O)c2ccc3[nH]c(-c4cccc(NC(=O)CCN5CCOCC5)c4)nc3c2)ccc1N(CCCl)CCCl` [Compound 2053, 1H-2-[3-[(3-morpholinopropionyl)amino]phenyl]benzimidazole-5-[N-[4-[N,N-bis(2-chloroethyl)]amino-3-methyl]phenyl]carboxyamide hydrochloride], the figure is 0.33 µg/mL; as for `O=C(CCN1CCOCC1)Nc1cccc(-c2nc3cc(C(=O)Nc4ccc(N(CCCl)CCCl)c(Cl)c4)ccc3[nH]2)c1` [Compound 2054, 1H-2-[3-[(3-morpholinopropionyl)amino]phenyl]benzimidazole-5-[N-[3-chloro-4-[N-bis(2-chloroethyl)amino]phenyl]]carboxyamide hydrochloride], 0.41 µg/mL; as for `Cc1cc(NC(=O)c2ccc3[nH]c(-c4cccc(NC(=O)Cc5cccnc5)c4)nc3c2)ccc1N(CCCl)CCCl` [Compound 2063, 1H-2-[3-(3-pyridylacetylamino)phenyl]benzimidazole-5-[N-[3-methyl-4-[N,N-bis(2-chloroethyl)amino]phenyl]]carboxyamide], 3.48 µg/mL (≈ 5.79 µM).
As to `Cn1cc(NC(=O)c2cc(NC(=O)c3cc(NC=O)cn3C)cn2C)cc1C(=O)NCCC(=N)N` [Distamycin, distamycin, reference compound], the IC50 in the assay with B16 melanoma cells (72 h, read-out: IC50 (anti-tumor activity)) amounted to 36 µg/mL (≈ 74.8 µM).
